Experimental data taken from patent US4031231A, “Antibacterial composition comprising 3-fluoro-D-alanine or deutero analog in combination with auto-antagonist inhibitor” (priority 1976, dated 1977).
In brackets after ≈: the same amount, converted by molar mass. Like-named read-outs stand apart in the source and are kept apart here.

Experiments:
[1] = test system: Escherichia coli (Strain 2017); assay: Growth inhibition (complete repression of growth) of Escherichia coli culture; assay type: cell-based; settings: for concentration of FDA-autoantagonist-inhibitor at which growth is completely repressed in combination with 3-fluoro-D-alanine / inhibitor-effective concentration as percentage of its own minimum effective antibacterial concentration: combined with 3-fluoro-D-alanine at 50 μg/ml
Procedure: When the 3-fluoro-D-alanine, at this concentration of 50 μg/ml, is combined with an FDA-autoantagonist-inhibitor, such as cycloserine at concentrations of only 0.39 μg/ml, terizidone at 0.8 μg/ml, D-4-(1'-methyl-3'-oxo-1'-butenyl)amino-3-isoxazolidinone or its sodium salt at 0.72 μg/ml, or D-cis-cyclothreonine at approximately 2 μg/ml, growth of the Escherichia coli is completely repressed.

[2] = test system: Staphylococcus aureus 2949; assay: Protection of mice infected with Staphylococcus aureus 2949 (ED50); assay type: in vivo, Staphylococcus aureus 2949; female C.D.1 mice; settings: 30 LD50; subcutaneous at 0, 2, 4 hours; 50% protected for 7 days
Procedure: (§1) Female C.D.1 mice of average weight 21.0 g. are injected intraperitoneally with 0.5 ml. of an appropriate dilution of a 16-hour broth culture containing the indicated pathogen. (The severity of the infectious challenge is represented in each case as the multiple of the dilution of the broth culture which is lethal for only 50% of the untreated population, i.e. No. LD50.) Appropriate dosages of 3-fluoro-D-alanine(FDA) and D-cycloserine, individually, and combinations of these two components in a fixed ration of 1:1 are administered in 0.5 ml volume subcutaneously on the dorsal surface, promptly at the time of the injection, and at 2 hour and 4 hour intervals thereafter. The results of these tests, which are expressed as the ED50 dose, which is the statistically interpolated dose required to protect 50% of the infected population for a period of 7 days following challenge and treatment, are as follows: […]

Escherichia coli 2017 = assay: Survival of mice infected with Escherichia coli 2017; assay type: in vivo, Escherichia coli 2017; female C.D.1 mice; settings: for number of survivors in each group of five infected mice: subcutaneous, 3 LD50
Procedure: Groups of five female C.D.1 mice of average weight 21.0 g are injected intraperitoneally with 0.5 ml of a diluted broth culture of Escherichia coli 2017 representing 3 LD50 of bacterial pathogens. The indicated dosages of 3-fluoro-D-alanine (FDA) and D-cycloserine are then promptly administered in a 0.5 ml volume by the subcutaneous route on the dorsal surface.
Across the top row of the tabulation are listed the number of mice surviving (in each group of five infected mice) for the indicated doses (mg) of 3-fluoro-D-alanine alone; in the first vertical column are listed the number surviving for the indicated doses (mg) of cycloserine alone; and in the second vertical column are listed the number of mice surviving for combination doses of 5.0 mg of 3-fluoro-D-alanine and the indicated amount (mg) of cycloserine.

Serratia species 3374 = assay: Protection of mice infected with Serratia species 3374 (ED50); assay type: in vivo, Serratia species 3374; female C.D.1 mice; settings: 3 LD50; subcutaneous at 0, 2, 4 hours; 50% protected for 7 days
Procedure: as §1

[3] = test system: Escherichia coli (Strain 2017); assay: Growth inhibition (complete repression of growth) of Escherichia coli culture; assay type: cell-based; settings: for MIC: Escherichia coli, read-out: minimum concentration for complete inhibition (repression) of growth
[4] = Release of cycloserine or methyl-cycloserine in vivo when administered clinically; settings: for effectiveness in releasing cycloserine or methyl-cycloserine in vivo: administered clinically, substantially avoiding dimerization
[5] = Stability in aqueous solution; assay type: physicochemical
[6] = individual component alone, E. coli Strain 2017

| Structure (SMILES) | concentration of FDA-autoantagonist-inhibitor at which growth is completely repressed in combination with 3-fluoro-D-alanine [1] | inhibitor-effective concentration as percentage of its own minimum effective antibacterial concentration [1] | ED50, individual components [2] [mg/dose] | ED50, individual components (Serratia species 3374) [mg/dose] | MIC [3, 6] [µg/mL] | effectiveness in releasing cycloserine or methyl-cycloserine in vivo [4] | stability in aqueous solution [5] | also measured |
| --- | --- | --- | --- | --- | --- | --- | --- | --- |
| C[C@@H]1ONC(=O)[C@@H]1N [D-cis-cyclothreonine] | approximately 2 μg/ml | less than 2% |  |  |  |  |  |  |
| N[C@@H]1CON=C1O [cycloserine, D-4-amino-3-isoxazolidinone, reference compound] | 0.39 µg/mL | less than 2% | 0.400 | 2.5 | 25 (≈ 245 µM) |  |  | suppression of the autoantagonism shown by 3-fluoro-D-alanine (Escherichia coli 2017; 0.156 mg of cycloserine with 5.0 mg of 3-fluoro-D-alanine): completely suppresses the autoantagonism; number of survivors in each group of five infected mice (Escherichia coli 2017; D-cycloserine alone 0.078 mg): 0 mice; number of survivors in each group of five infected mice (Escherichia coli 2017; D-cycloserine alone 0.312 mg): 0 mice; number of survivors in each group of five infected mice (Escherichia coli 2017; D-cycloserine alone 1.25 mg): 3 mice; number of survivors in each group of five infected mice (Escherichia coli 2017; D-cycloserine alone 5.0 mg): 5 mice; protection (Escherichia coli 2017; cycloserine alone, 0.156 mg): zero protection; minimum concentration for complete inhibition (repression) of growth [3, 6]: 25 µg/mL |
| CC(=O)C=C(C)N[C@@H]1CONC1=O [D-4-(1'-methyl-3'-oxo-1'-butenyl)amino-3-isoxazolidinone] | 0.72 µg/mL |  |  |  |  | extremely effective | remarkably stable in aqueous solution | effectiveness in releasing cycloserine in the blood stream and in the bladder ([4]; blood stream, bladder): of particular effectiveness |
| O=C1NOCC1/N=C/c1ccc(/C=N/C2CONC2=O)cc1 (stereo not drawn) [terizidone] | 0.8 µg/mL | less than 2% |  |  |  |  |  |  |
| N[C@H](CF)C(=O)O [FDA, 3-fluoro-D-alanine] |  |  | 0.801 | 1.7 | 3.12 (≈ 29.1 µM) |  |  | MIC ([1]; Escherichia coli, read-out: concentration at which growth is completely repressed): 3.2 µg/mL (≈ 29.9 µM); survival (Escherichia coli 2017; 1.25 mg dose of 3-fluoro-D-alanine alone): 80%; survival (Escherichia coli 2017; 5.0 mg dose of 3-fluoro-D-alanine alone (autoantagonism)): 20%; number of survivors in each group of five infected mice (Escherichia coli 2017; FDA alone 0.078 mg): 0 mice; number of survivors in each group of five infected mice (Escherichia coli 2017; FDA alone 0.312 mg): 3 mice; number of survivors in each group of five infected mice (Escherichia coli 2017; FDA alone 1.25 mg): 4 mice; number of survivors in each group of five infected mice (Escherichia coli 2017; FDA alone 5.0 mg): 1 mice; growth of the organism at higher concentration (autoantagonist action) ([3]; 3-fluoro-D-alanine alone at 50 μg/ml): extensive growth |
| CC(=O)C(C)=C(C)N[C@@H]1CONC1=O [D-4-(1',2'-dimethyl-3'-oxo-1'-butenyl)amino-3-isoxazolidinone] |  |  |  |  |  | extremely effective | remarkably stable in aqueous solution |  |
